Test results taken from ChEMBL document CHEMBL5042526, “Design, Synthesis, and Biological Evaluation of Triazolone Derivatives as Potent PPARα/δ Dual Agonists for the Treatment of Nonalcoholic Steatohepatitis” (J Med Chem, 2022).
Calls of active or inactive are those of the source. The calls are words filed in the database; no cut-off is given here.

How the values were obtained:
Mus musculus [1] = test: In vivo agonist activity against PPARalpha/delta assessed as upregulation of Mat2a mRNA expression in C57BL/6Nifdc mouse liver at 10 mg/kg, po for 4 days; type: functional, organism-based; settings: time 4.0 day
Mus musculus [2] = test: Anti-NASH activity in HF-CDAA-induced nonalcoholic steatohepatitis C57BL/6JNifdc mouse model assessed as reversal of inflammatory infilitration 3 to 30 mg/kg, po by H and E staining method; type: functional, organism-based; settings: dose 3-30 mg/kg
Mus musculus [3] = test: Anti-NASH activity in HF-CDAA-induced nonalcoholic steatohepatitis C57BL/6JNifdc mouse model assessed as lipid number at 3 to 30 mg/kg, po by H and E staining method; type: functional, organism-based; settings: dose 3-30 mg/kg
Mus musculus [4] = test: In vivo agonist activity at PPARalpha/delta assessed as upregulation of Gpd1 mRNA expression in C57BL/6Nifdc mouse liver at 10 mg/kg, po for 4 days; type: functional, organism-based; settings: time 4.0 day
[5] = target: T1, Peroxisome proliferator-activated receptor gamma (Mus musculus, UniProt P37238); test: Agonist activity at mouse PPARgamma in Cos7 cells transfected with pBIND and pGL4.35 Gal4 UAS Luc reporter plasmid by measuring luciferase activity incubated for 16 hrs by luciferase reporter gene assay
T1 sequence (P37238 whole entry): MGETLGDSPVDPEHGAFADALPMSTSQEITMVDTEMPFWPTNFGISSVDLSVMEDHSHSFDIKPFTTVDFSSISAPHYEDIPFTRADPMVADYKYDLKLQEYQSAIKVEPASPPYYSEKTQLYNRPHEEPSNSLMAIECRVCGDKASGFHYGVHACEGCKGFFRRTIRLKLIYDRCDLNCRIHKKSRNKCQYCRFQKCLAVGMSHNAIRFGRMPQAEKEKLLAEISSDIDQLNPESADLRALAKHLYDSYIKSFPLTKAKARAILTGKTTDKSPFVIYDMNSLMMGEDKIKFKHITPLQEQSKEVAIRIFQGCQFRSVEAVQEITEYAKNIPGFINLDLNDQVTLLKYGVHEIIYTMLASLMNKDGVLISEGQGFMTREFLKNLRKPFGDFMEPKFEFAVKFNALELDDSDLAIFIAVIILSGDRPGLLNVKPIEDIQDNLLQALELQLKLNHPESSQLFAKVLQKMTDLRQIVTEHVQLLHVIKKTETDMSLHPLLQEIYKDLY

AML12 = test: Agonist activity against PPARalpha/delta (unknown origin) assessed as upregulation of ACADVL mRNA expression in […] cells at 8 nM incubated for 12 hrs by RT-PCR analysis; type: cell-based; settings: filed as agonist
COS7 = test: Agonist activity at human CAR (48 to 324 residues) in Cos7 cells transfected with LBD-Gal4 and pGL435 Gal4 UAS Luc reporter plasmid at 10 uM by reporter gene assay; type: cell-based
Mus musculus [6] = test: Anti-fibrosis effect in HF-CDAA-induced nonalcoholic steatohepatitis C57BL/6JNifdc mouse model assessed as expression of Tgfb1 marker at 10 mg/kg, po after 20 hrs by Western blot analysis; type: functional, organism-based
Mus musculus [7] = test: In vivo agonist activity against PPARalpha/delta assessed as upregulation of Fabp1 mRNA expression in C57BL/6Nifdc mouse liver at 10 mg/kg, po for 4 days; type: functional, organism-based; settings: time 4.0 day
Mus musculus [8] = test: Anti-fibrosis effect in CCl4 induced liver fibrosis C57BL/6JNifdc mouse model assessed as downregulation of Col1a1 expression at 3 to 30 mg/kg, po after 20 hrs by Western blot analysis; type: functional, organism-based; settings: dose 3-30 mg/kg
Mus musculus [9] = test: In vivo agonist activity at PPARalpha/delta assessed as upregulation of Retsat-mRNA expression in C57BL/6Nifdc mouse liver at 10 mg/kg, po for 4 days; type: functional, organism-based; settings: time 4.0 day
Mus musculus [10] = test: In vivo agonist activity at PPARalpha/delta assessed as upregulation of Lipa mRNA expression in C57BL/6Nifdc mouse liver at 10 mg/kg, po for 4 days; type: functional, organism-based; settings: time 4.0 day
C2C12 = test: Agonist activity against PPARalpha/delta ( unknown origin) assessed as upregulation of Pdk4 mRNA expression in […] cells incubated for 12 hrs by RT-PCR analysis; type: cell-based; settings: filed as agonist, dose 8-200 nM
HepG2 = test: Agonist activity against PPARalpha/delta (unknown origin) assessed as upregulation of ACADVL mRNA expression in human HepG2 cells incubated for 12 hrs by RT-PCR analysis; type: cell-based; settings: filed as agonist, dose 8-200 nM

**Q.** What does the source list for `Cc1cc(Cn2ncn(-c3ccc(OC(F)(F)F)cc3)c2=O)cc(C)c1OC(C)(C)C(=O)O`?
**A.** Activity (Mus musculus [1]): Active; Activity (Mus musculus [2]): Active; Activity (Mus musculus [3]): Active; Activity (Mus musculus [4]): Active; EC50 [5]: 1.01 µM; Activity (AML12): Active; Activity (COS7): inactive; Activity (Mus musculus [6]): Active; Activity (Mus musculus [7]): Active; Activity (Mus musculus [8]): Active; Activity (Mus musculus [9]): Active; Activity (Mus musculus [10]): Active; Activity (C2C12): Dose-Dependent Effect; Activity (HepG2): Dose-Dependent Effect
